{
  "source": "patent US20130210809A1",
  "about": "“NOVEL 2-AMINO-4-PYRAZOLYL-THIAZOLE DERIVATIVES AND THEIR USE AS ALLOSTERIC MODULATORS OF METABOTROPIC GLUTAMATE RECEPTORS” (priority 2010, published 2013)",
  "note": "pEC50: −log10 of the molar value.",
  "data": [
    {"target": "T1, recombinant human mGluR4a receptors (Homo sapiens, UniProt Q14833)", "T1 construct": "expressed in transfected cells", "T1 sequence (Q14833 33-912)": "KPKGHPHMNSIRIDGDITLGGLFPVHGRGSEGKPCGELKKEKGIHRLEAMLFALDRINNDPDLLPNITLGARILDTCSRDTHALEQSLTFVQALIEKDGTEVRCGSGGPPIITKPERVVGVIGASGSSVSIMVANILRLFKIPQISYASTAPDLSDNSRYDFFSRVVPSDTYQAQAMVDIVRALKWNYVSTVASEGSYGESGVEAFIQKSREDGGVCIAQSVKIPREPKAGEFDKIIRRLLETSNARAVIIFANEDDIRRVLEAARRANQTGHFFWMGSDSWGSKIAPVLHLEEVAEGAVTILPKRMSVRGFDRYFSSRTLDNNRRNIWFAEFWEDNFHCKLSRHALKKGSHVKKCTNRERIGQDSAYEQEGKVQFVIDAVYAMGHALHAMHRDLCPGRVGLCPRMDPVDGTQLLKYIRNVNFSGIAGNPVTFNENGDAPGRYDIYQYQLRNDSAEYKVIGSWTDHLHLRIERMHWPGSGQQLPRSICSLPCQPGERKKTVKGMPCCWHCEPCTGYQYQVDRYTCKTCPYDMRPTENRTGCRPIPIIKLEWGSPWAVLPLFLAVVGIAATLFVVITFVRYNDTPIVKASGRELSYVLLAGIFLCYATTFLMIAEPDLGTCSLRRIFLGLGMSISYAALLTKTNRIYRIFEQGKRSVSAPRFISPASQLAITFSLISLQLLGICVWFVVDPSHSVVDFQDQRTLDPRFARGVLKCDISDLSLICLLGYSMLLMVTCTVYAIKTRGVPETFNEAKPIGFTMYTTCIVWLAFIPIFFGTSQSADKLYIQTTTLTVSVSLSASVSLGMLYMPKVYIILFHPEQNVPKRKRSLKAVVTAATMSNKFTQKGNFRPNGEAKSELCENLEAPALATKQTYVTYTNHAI", "assay": "mGluR4 assay on HEK-expressing human mGluR4 (fluorescent cell based Ca2+ mobilization assay, FLIPR)", "settings": "HEK-293 cells expressing hmGluR4; enhancement of EC25 glutamate response; mean of at least three independent experiments in duplicate; read-out: Ca^2+ Flux (mean EC50)", "source_text": "mGluR4 Assay on HEK-Expressing Human mGluR4\nThe compounds of the present invention are positive allosteric modulators of mGluR4 receptor. Their activity was examined on recombinant human mGluR4a receptors by detecting changes in intracellular Ca^2+ concentration, using the fluorescent Ca^2+-sensitive dye Fluo4-(AM) and a Fluorometric Imaging Plate Reader (FLIPR, Molecular Devices, Sunnyvale, Calif.).\nThe cDNA encoding the human metabotropic glutamate receptor (hmGluR4), (accession number NM_000841.1, NCBI Nucleotide database browser), was subcloned into an expression vector containing also the Hygromycin resistance gene. In parallel, the cDNA encoding a G protein allowing redirection of the activation signal to intracellular calcium flux was subcloned into a different expression vector containing also the Puromycin resistance gene. Transfection of both these vectors into HEK293 cells with PolyFect reagent (Qiagen) according to supplier's protocol, and hygromycin and puromycin treatment allowed selection of antibiotic resistant cells which had integrated stably one or more copies of the plasmids. Positive cellular clones expressing hmGluR4 were identified in a functional assay measuring changes in calcium flux in response to glutamate or selective known mGluR4 orthosteric agonists and antagonists. HEK-293 cells expressing hmGluR4 were maintained in media containing DMEM, dialyzed Fetal Calf Serum (10%), Glutamax™ (2 mM), Penicillin (100 units/mL), Streptomycin (100 μg/mL), Geneticin (100 μg/mL) and Hygromycin-B (40 μg/mL) and Puromycin (1 μg/mL) at 37° C./5% CO2.\nHuman mGluR4 HEK-293 cells were plated out 24 hours prior to FLIPR^384 assay in black-walled, clear-bottomed, poly-L-ornithine-coated 384-well plates at a density of 25,000 cells/well in a glutamine/glutamate free DMEM medium containing foetal bovine serum (10%), penicillin (100 units/mL) and streptomycin (100 μg/mL) at 37° C./5% CO2.\nOn the day of the assay, the medium was aspirated and the cells were loaded with a 3 μM solution of Fluo4-AM (LuBioScience, Lucerne, Switzerland) in 0.03% pluronic acid. After 1 hour at 37° C./5% CO2, the non incorporated dye was removed by washing cell plate with the assay buffer and the cells were left in the dark at it for six hours before testing. All assays were performed in a pH 7.4 buffered-solution containing 20 mM HEPES, 143 mM NaCl, 6 mM KCl, 1 mM MgSO4, 1 mM CaCl2, 0.125 mM sulfapyrazone and 0.1% glucose.\nAfter 10 s of basal fluorescence recording, various concentrations of the compounds of the invention were added to the cells. Changes in fluorescence levels were first monitored for 180 s in order to detect any agonist activity of the compounds. Then the cells were stimulated by an EC25 glutamate concentration for an additional 110 s in order to measure enhancing activities of the compounds of the invention. EC25 glutamate concentration is the concentration giving 25% of the maximal glutamate response.\nThe concentration-response curves of representative compounds of the present invention were generated using the Prism GraphPad software (Graph Pad Inc, San Diego, USA). The curves were fitted to a four-parameter logistic equation:\n(Y=Bottom+(Top−Bottom)/(1+10̂((Log EC50-X)*Hill Slope)\nallowing the determination of EC50 values.\nThe Table 3 below represents the mean EC50 obtained from at least three independent experiments of selected molecules performed in duplicate.", "values": [
      {"smiles": "Cc1ccnc(Nc2nc(-c3c[nH]nc3-c3ccc(C4CC4)cc3)cs2)n1", "note": "[Compound 1-17, 4-(3-(4-Cyclopropylphenyl)-1H-pyrazol-4-yl)-N-(4-methylpyrimidin-2-yl)thiazol-2-amine]", "pEC50": "5.00 to 6.00"},
      {"smiles": "Cc1ccnc(Nc2nc(-c3c[nH]nc3-c3cccc(N4CCS(=O)(=O)CC4)c3)cs2)n1", "note": "[Compound 1-2, N-(4-Methylpyrimidin-2-yl)-4-(3-(3-(1,1-dioxido-4-thiomorpholinyl)phenyl)-1H-pyrazol-4-yl)thiazol-2-amine]", "pEC50": "5.00 to 6.00"},
      {"smiles": "Cc1cccc(-c2n[nH]cc2-c2csc(Nc3nccc(C)n3)n2)c1", "note": "[Compound 1-12, N-(4-Methylpyrimidin-2-yl)-4-(3-m-tolyl-1H-pyrazol-4-yl)thiazol-2-amine]", "pEC50": "5.00 to 6.00"},
      {"smiles": "Cc1ccnc(Nc2nc(-c3cn[nH]c3-c3cc(C#N)ccc3F)cs2)n1", "note": "[Compound 1-34, 4-Fluoro-3-(4-(2-(4-methylpyrimidin-2-ylamino)thiazol-4-yl)-1H-pyrazol-5-yl)benzonitrile]", "pEC50": "6.00 to 7.00"},
      {"smiles": "CNC(=O)c1[nH]ncc1-c1csc(Nc2nccc(C)n2)n1", "note": "[Compound 1-32, N-Methyl-4-(2-(4-methylpyrimidin-2-ylamino)thiazol-4-yl)-1H-pyrazole-5-carboxamide]", "pEC50": "5.00 to 6.00"},
      {"smiles": "Cc1ccnc(Nc2nc(-c3c[nH]nc3-c3ccccc3Cl)cs2)n1", "note": "[Compound 1-21, 4-(3-(2-Chlorophenyl)-1H-pyrazol-4-yl)-N-(4-methylpyrimidin-2-yl)thiazol-2-amine]", "pEC50": "6.00 to 7.00"},
      {"smiles": "Cc1ccnc(Nc2nc(-c3c[nH]nc3-c3cccc(N4CCC(O)C4)c3)cs2)n1", "note": "(stereo not shown) [Compound 1-42, 1-(3-(4-(2-(4-Methylpyrimidin-2-ylamino)thiazol-4-yl)-1H-pyrazol-3-yl)phenyl)pyrrolidin-3-ol]", "pEC50": "6.00 to 7.00"},
      {"smiles": "COC(=O)N1CC=C(c2n[nH]cc2-c2csc(Nc3nccc(C)n3)n2)CC1", "note": "[Compound 1-41, Methyl 4-(4-(2-(4-methylpyrimidin-2-ylamino)thiazol-4-yl)-1H-pyrazol-3-yl)-5,6-dihydropyridine-1 (2H)-carboxylate]", "pEC50": "5.00 to 6.00"},
      {"smiles": "CCc1ccnc(Nc2nc(-c3c[nH]nc3COC)cs2)n1", "note": "[Compound 1-38, N-(4-Ethylpyrimidin-2-yl)-4-(3-(methoxymethyl)-1H-pyrazol-4-yl)thiazol-2-amine]", "pEC50": "5.00 to 6.00"},
      {"smiles": "Cc1ccnc(Nc2nc(-c3c[nH]nc3-c3cncc(Cl)c3)cs2)n1", "note": "[Compound 1-10, 4-(3-(5-Chloropyridin-3-yl)-1H-pyrazol-4-yl)-N-(4-methylpyrimidin-2-yl)thiazol-2-amine]", "pEC50": "5.00 to 6.00"},
      {"smiles": "Cc1ccnc(Nc2nc(-c3c[nH]nc3-c3cccc(CCCO)c3)cs2)n1", "note": "[Compound 1-15, 3-(3-(4-(2-(4-Methylpyrimidin-2-ylamino)thiazol-4-yl)-1H-pyrazol-3-yl)phenyl)propan-1-ol]", "pEC50": "6.00 to 7.00"},
      {"smiles": "Cc1ccnc(Nc2nc(-c3cn[nH]c3-c3cccc(C#N)c3F)cs2)n1", "note": "[Compound 1-35, 2-Fluoro-3-(4-(2-(4-methylpyrimidin-2-ylamino)thiazol-4-yl)-1H-pyrazol-5-yl)benzonitrile]", "pEC50": "> 7.00"},
      {"smiles": "c1ccc(Nc2nc(-c3c[nH]nc3N3CCOCC3)cs2)nc1", "note": "[Compound 1-13, 4-(3-Morpholino-1H-pyrazol-4-yl)-N-(pyridin-2-yl)thiazol-2-amine]", "pEC50": "5.00 to 6.00"},
      {"smiles": "Cc1ccnc(Nc2nc(-c3c[nH]nc3-c3ccc(F)cc3F)cs2)n1", "note": "[Compound 1-24, 4-(3-(2,4-Difluorophenyl)-1H-pyrazol-4-yl)-N-(4-methylpyrimidin-2-yl)thiazol-2-amine]", "pEC50": "5.00 to 6.00"},
      {"smiles": "Cc1ccnc(Nc2nc(-c3c[nH]nc3-c3ccncc3)cs2)n1", "note": "[Compound 1-18, N-(4-Methylpyrimidin-2-yl)-4-(3-(pyridin-4-yl)-1H-pyrazol-4-yl)thiazol-2-amine]", "pEC50": "5.00 to 6.00"},
      {"smiles": "Cc1ccnc(Nc2nc(-c3c[nH]nc3-c3ccccc3OC(F)(F)F)cs2)n1", "note": "[Compound 1-20, N-(4-Methylpyrimidin-2-yl)-4-(3-(2-(trifluoromethoxy)phenyl)-1H-pyrazol-4-yl)thiazol-2-amine]", "pEC50": "5.00 to 6.00"},
      {"smiles": "Cc1ccnc(Nc2nc(-c3cn[nH]c3COC3CCC3)cs2)n1", "note": "[Compound 1-28, 4-(5-(Cyclobutoxymethyl)-1H-pyrazol-4-yl)-N-(4-methylpyrimidin-2-yl)thiazol-2-amine]", "pEC50": "6.00 to 7.00"},
      {"smiles": "Cc1ccnc(Nc2nc(-c3c[nH]nc3-c3ccc(Cl)cc3)cs2)n1", "note": "[Compound 1-16, 4-(3-(4-Chlorophenyl)-1H-pyrazol-4-yl)-N-(4-methylpyrimidin-2-yl)thiazol-2-amine]", "pEC50": "6.00 to 7.00"},
      {"smiles": "COc1ccc(F)cc1-c1n[nH]cc1-c1csc(Nc2ncccn2)n1", "note": "[Compound 1-31, 4-(3-(5-Fluoro-2-methoxyphenyl)-1H-pyrazol-4-yl)-N-(pyrimidin-2-yl)thiazol-2-amine]", "pEC50": "> 7.00"},
      {"smiles": "Cc1ccnc(Nc2nc(-c3c[nH]nc3-c3ccc(C(O)C(F)(F)F)cc3)cs2)n1", "note": "(stereo not shown) [Compound 1-6, 2,2,2-Trifluoro-1-(4-(4-(2-(4-methylpyrimidin-2-ylamino)thiazol-4-yl)-1H-pyrazol-3-yl)phenyl)ethanol]", "pEC50": "5.00 to 6.00"},
      {"smiles": "Cc1ccnc(Nc2nc(-c3c[nH]nc3-c3cccc4c3CNC4=O)cs2)n1", "note": "[Compound 1-7, 4-(4-(2-(4-Methylpyrimidin-2-ylamino)thiazol-4-yl)-1H-pyrazol-3-yl)isoindolin-1-one]", "pEC50": "5.00 to 6.00"},
      {"smiles": "Cc1ccnc(Nc2nc(-c3c[nH]nc3C(F)F)cs2)n1", "note": "[Compound 1-1, 4-(3-(Difluoromethyl)-1H-pyrazol-4-yl)-N-(4-methylpyrimidin-2-yl)thiazol-2-amine]", "pEC50": "> 7.00"},
      {"smiles": "Cc1ccnc(Nc2nc(-c3c[nH]nc3-c3cccc(CN4CCOCC4)c3)cs2)n1", "note": "[Compound 1-9, N-(4-Methylpyrimidin-2-yl)-4-(3-(3-(morpholinomethyl)phenyl)-1H-pyrazol-4-yl)thiazol-2-amine]", "pEC50": "5.00 to 6.00"},
      {"smiles": "Cc1ccnc(Nc2nc(-c3c[nH]nc3-c3ccccc3F)cs2)n1", "note": "[Compound 1-3, 4-(3-(2-Fluorophenyl)-1H-pyrazol-4-yl)-N-(4-methylpyrimidin-2-yl)thiazol-2-amine]", "pEC50": "> 7.00"},
      {"smiles": "CC(=O)N1CC=C(c2n[nH]cc2-c2csc(Nc3nccc(C)n3)n2)CC1", "note": "[Compound 1-40, 1-(4-(4-(2-(4-Methylpyrimidin-2-ylamino)thiazol-4-yl)-1H-pyrazol-3-yl)-5,6-dihydropyridin-1(2H)-yl)ethanone]", "pEC50": "5.00 to 6.00"},
      {"smiles": "CC(=O)N1CCC=C(c2n[nH]cc2-c2csc(Nc3nccc(C)n3)n2)C1", "note": "[Compound 1-33, 1-(3-(4-(2-(4-Methylpyrimidin-2-ylamino)thiazol-4-yl)-1H-pyrazol-3-yl)-5,6-dihydropyridin-1(2H)-yl)ethanone]", "pEC50": "5.00 to 6.00"},
      {"smiles": "Cc1ccnc(Nc2nc(-c3c[nH]nc3-c3ccccc3C)cs2)n1", "note": "[Compound 1-19, N-(4-Methylpyrimidin-2-yl)-4-(3-o-tolyl-1H-pyrazol-4-yl)thiazol-2-amine]", "pEC50": "5.00 to 6.00"},
      {"smiles": "Cc1ccnc(Nc2nc(-c3c[nH]nc3-c3cnn4c3CCC4)cs2)n1", "note": "[Compound 1-8, 4-(3-(5,6-Dihydro-4H-pyrrolo[1,2-b]pyrazol-3-yl)-1H-pyrazol-4-yl)-N-(4-methylpyrimidin-2-yl)thiazol-2-amine]", "pEC50": "5.00 to 6.00"},
      {"smiles": "N#Cc1sc(Nc2nccnn2)nc1-c1cn[nH]c1", "note": "[Compound 1-45, 2-(1,2,4-Triazin-3-ylamino)-4-(1H-pyrazol-4-yl)thiazole-5-carbonitrile]", "pEC50": "6.00 to 7.00"},
      {"smiles": "COCc1n[nH]cc1-c1csc(Nc2ncc(F)cn2)n1", "note": "[Compound 1-37, N-(5-Fluoropyrimidin-2-yl)-4-(3-(methoxymethyl)-1H-pyrazol-4-yl)thiazol-2-amine]", "pEC50": "5.00 to 6.00"},
      {"smiles": "COC(=O)N1CC=C(c2n[nH]cc2-c2csc(Nc3nccc(C)n3)n2)C1", "note": "[Compound 1-39, Methyl 3-(4-(2-(4-methylpyrimidin-2-ylamino)thiazol-4-yl)-1H-pyrazol-3-yl)-2,5-dihydro-1H-pyrrole-1-carboxylate]", "pEC50": "6.00 to 7.00"}
    ]}
  ]
}
